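Five compound concentrations were applied to cells in 96-well plates for 48 hours; endpoints were derived by simple linear interpolation of the resulting dose-response curve. GI50 = concentration required for 50% inhibition of growth. At the TGI there is no net growth.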
Columns and labels:
Assay in all cases: NCI tumour cell line growth inhibition, 48 h
MALME-3M melanoma = system: MALME-3M melanoma
T-47D breast = system: T-47D breast
MCF7 breast = system: MCF7 breast
OVCAR-3 ovarian = system: OVCAR-3 ovarian
BT-549 breast = system: BT-549 breast
DU-145 prostate = system: DU-145 prostate
LOX IMVI melanoma = system: LOX IMVI melanoma
SF-295 CNS = system: SF-295 CNS
K-562 leukemia = system: K-562 leukemia
ACHN renal = system: ACHN renal
SK-OV-3 ovarian = system: SK-OV-3 ovarian
PC-3 prostate = system: PC-3 prostate
HCT-116 colon = system: HCT-116 colon
UACC-62 melanoma = system: UACC-62 melanoma
OVCAR-8 ovarian = system: OVCAR-8 ovarian
HL-60(TB) leukemia = system: HL-60(TB) leukemia
MDA-MB-231 breast = system: MDA-MB-231 breast
786-0 renal = system: 786-0 renal
CAKI-1 renal = system: CAKI-1 renal
RPMI-8226 leukemia = system: RPMI-8226 leukemia
HCC-2998 colon = system: HCC-2998 colon
SK-MEL-28 melanoma = system: SK-MEL-28 melanoma
TK-10 renal = system: TK-10 renal
SF-268 CNS = system: SF-268 CNS
HOP-62 NSCLC = system: HOP-62 NSCLC
NCI-H226 lung = system: NCI-H226 lung
HS 578T breast = system: HS 578T breast
SR leukemia = system: SR leukemia
A498 renal = system: A498 renal
SNB-19 CNS = system: SNB-19 CNS
KM12 colon = system: KM12 colon
COLO 205 colon = system: COLO 205 colon
EKVX NSCLC = system: EKVX NSCLC
SNB-75 CNS = system: SNB-75 CNS
HT29 colon = system: HT29 colon
M14 melanoma = system: M14 melanoma
MDA-N = system: MDA-N
NCI-H23 lung = system: NCI-H23 lung
UO-31 renal = system: UO-31 renal
U251 CNS = system: U251 CNS
NCI-H460 lung = system: NCI-H460 lung
SF-539 CNS = system: SF-539 CNS
IGROV1 ovarian = system: IGROV1 ovarian
SW-620 colon = system: SW-620 colon
A549 NSCLC = system: A549 NSCLC
MDA-MB-435 = system: MDA-MB-435
NCI-H522 lung = system: NCI-H522 lung
OVCAR-5 ovarian = system: OVCAR-5 ovarian
OVCAR-4 ovarian = system: OVCAR-4 ovarian
CCRF-CEM leukemia = system: CCRF-CEM leukemia
SN12C renal = system: SN12C renal
SK-MEL-5 melanoma = system: SK-MEL-5 melanoma
HCT-15 colon = system: HCT-15 colon
NCI/ADR-RES ovarian = system: NCI/ADR-RES ovarian
HOP-92 NSCLC = system: HOP-92 NSCLC
SK-MEL-2 melanoma = system: SK-MEL-2 melanoma
UACC-257 melanoma = system: UACC-257 melanoma
RXF 393 renal = system: RXF 393 renal

## CC(C)(C)C(=O)CC(=O)C(F)(F)C(F)(F)C(F)(F)F.CC(C)(C)C(=O)CC(=O)C(F)(F)C(F)(F)C(F)(F)F.CC(C)(C)C(=O)CC(=O)C(F)(F)C(F)(F)C(F)(F)F.[Er]
MALME-3M melanoma
  TGI: > 100 µM
T-47D breast
  TGI: > 100 µM
MCF7 breast
  GI50: > 100 µM
  TGI: > 100 µM
OVCAR-3 ovarian
  TGI: > 100 µM
BT-549 breast
  GI50: > 100 µM
  TGI: > 100 µM
DU-145 prostate
  TGI: > 100 µM
LOX IMVI melanoma
  TGI: > 100 µM
SF-295 CNS
  TGI: > 100 µM
K-562 leukemia
  TGI: > 100 µM
ACHN renal
  TGI: > 100 µM
SK-OV-3 ovarian
  TGI: > 100 µM
PC-3 prostate
  TGI: > 100 µM
HCT-116 colon
  TGI: > 100 µM
UACC-62 melanoma
  TGI: > 100 µM
OVCAR-8 ovarian
  TGI: > 100 µM
HL-60(TB) leukemia
  TGI: > 100 µM
MDA-MB-231 breast
  TGI: > 100 µM
786-0 renal
  TGI: > 100 µM
CAKI-1 renal
  TGI: > 100 µM
RPMI-8226 leukemia
  TGI: > 100 µM
HCC-2998 colon
  GI50: 43.5 µM
  TGI: > 100 µM
SK-MEL-28 melanoma
  TGI: > 100 µM
TK-10 renal
  TGI: > 100 µM
SF-268 CNS
  TGI: > 100 µM
HOP-62 NSCLC
  TGI: > 100 µM
NCI-H226 lung
  TGI: > 100 µM
HS 578T breast
  TGI: > 100 µM
SR leukemia
  TGI: > 100 µM
A498 renal
  GI50: > 100 µM
  TGI: > 100 µM
SNB-19 CNS
  TGI: > 100 µM
KM12 colon
  TGI: > 100 µM
COLO 205 colon
  TGI: > 100 µM
EKVX NSCLC
  TGI: 96.8 µM
SNB-75 CNS
  TGI: > 100 µM
HT29 colon
  TGI: > 100 µM
M14 melanoma
  TGI: > 100 µM
MDA-N
  TGI: > 100 µM
NCI-H23 lung
  TGI: > 100 µM
UO-31 renal
  TGI: > 100 µM
U251 CNS
  TGI: > 100 µM
NCI-H460 lung
  TGI: > 100 µM
SF-539 CNS
  TGI: > 100 µM
IGROV1 ovarian
  TGI: > 100 µM
SW-620 colon
  TGI: > 100 µM
A549 NSCLC
  TGI: > 100 µM
MDA-MB-435
  TGI: > 100 µM
NCI-H522 lung
  GI50: 94 µM
  TGI: > 100 µM
OVCAR-5 ovarian
  TGI: > 100 µM
OVCAR-4 ovarian
  TGI: > 100 µM
CCRF-CEM leukemia
  TGI: > 100 µM
SN12C renal
  TGI: > 100 µM

## O=C(Nc1ccc(Cl)cc1Cl)c1cc2nc3ccccc3c(=O)n2c2ccccc12
SK-MEL-5 melanoma
  TGI: > 10 µM
MALME-3M melanoma
  TGI: > 10 µM
T-47D breast
  TGI: > 10 µM
HCT-15 colon
  TGI: > 10 µM
MCF7 breast
  TGI: > 10 µM
OVCAR-3 ovarian
  TGI: > 10 µM
BT-549 breast
  TGI: > 10 µM
DU-145 prostate
  TGI: > 10 µM
LOX IMVI melanoma
  TGI: > 10 µM
NCI/ADR-RES ovarian
  TGI: > 10 µM
SF-295 CNS
  TGI: > 10 µM
K-562 leukemia
  TGI: > 10 µM
SK-OV-3 ovarian
  TGI: > 10 µM
PC-3 prostate
  TGI: > 10 µM
HCT-116 colon
  TGI: > 10 µM
UACC-62 melanoma
  TGI: > 10 µM
OVCAR-8 ovarian
  TGI: > 10 µM
HL-60(TB) leukemia
  TGI: > 10 µM
MDA-MB-231 breast
  TGI: > 10 µM
HOP-92 NSCLC
  TGI: > 10 µM
786-0 renal
  TGI: > 10 µM
CAKI-1 renal
  TGI: > 10 µM
HCC-2998 colon
  TGI: > 10 µM
SK-MEL-2 melanoma
  TGI: > 10 µM
SK-MEL-28 melanoma
  TGI: > 10 µM
TK-10 renal
  TGI: > 10 µM
SF-268 CNS
  TGI: > 10 µM
HOP-62 NSCLC
  TGI: > 10 µM
UACC-257 melanoma
  TGI: > 10 µM
RXF 393 renal
  TGI: > 10 µM
HS 578T breast
  TGI: > 10 µM
A498 renal
  TGI: > 10 µM
SNB-19 CNS
  TGI: > 10 µM
KM12 colon
  TGI: > 10 µM
EKVX NSCLC
  TGI: > 10 µM
HT29 colon
  TGI: > 10 µM
M14 melanoma
  TGI: > 10 µM
MDA-N
  TGI: > 10 µM
NCI-H23 lung
  TGI: > 10 µM
UO-31 renal
  TGI: > 10 µM
U251 CNS
  TGI: > 10 µM
NCI-H460 lung
  TGI: > 10 µM
SF-539 CNS
  TGI: > 10 µM
IGROV1 ovarian
  TGI: > 10 µM
SW-620 colon
  TGI: > 10 µM
A549 NSCLC
  TGI: > 10 µM
MDA-MB-435
  TGI: > 10 µM
NCI-H522 lung
  TGI: > 10 µM
OVCAR-5 ovarian
  TGI: > 10 µM
CCRF-CEM leukemia
  TGI: > 10 µM
